# Activity calls are given as the source filed them. No cut-off for these calls is given here.
# Key:
# [1] = test system: SH-SY5Y; test: Antioxidant activity against human SH-SY5Y cells assessed as increase in basal OCR at 10 uM incubated for 24 hrs followed by addition of oligomycin/FCCP/antimycin A /rotenone by Cell Mito stress assay based seahorse XF96 flux analyzer; type: functional
# [2] = test system: SH-SY5Y; test: Neuroprotective activity against tBHP-induced human SH-SY5Y cells assessed as increase in cell viability at 10 uM preincubated for 30 mins followed by t-BHP addition at 15 uM and measured after 24 hrs by neutral dye uptake assay relative to control; type: functional; conditions: time 24.5 hrs
# [3] = Drug uptake in C57BL/6J mouse liver mitochondria at 5 uM in presence of rotenone by UPLC analysis; type: ADME
# [4] = test system: SH-SY5Y; test: Effect on cell mitochondrial mass in human SH-SY5Y cells assessed as reduction on mitochondrial mass at 50 uM incubated for 24 hrs by mito-tracker green dye based flow cytometry; type: functional; design: scale not given: the % may be the effect or the level left
# [5] = test system: SH-SY5Y; test: Neuroprotective activity against tBHP-induced human SH-SY5Y cells assessed as increase in cell viability at 50 uM preincubated for 30 mins followed by t-BHP addition at 30 uM and measured after 24 hrs by neutral dye uptake assay relative to control; type: functional; conditions: time 24.5 hrs
# [6] = test system: SH-SY5Y; test: Induction of mitochondrial membrane polarization in human SH-SY5Y cells at 10 uM incubated for 24 hrs by JC-1 staining based fluorescence assay; type: functional
# [7] = test system: SH-SY5Y; test: Neuroprotective activity against H2O2-induced human SH-SY5Y cells assessed as increase in cell viability at 50 uM preincubated for 30 mins followed by H2O2 addition and measured after 24 hrs by SRB assay; type: functional, cell-based; conditions: time 24.5 hrs
# [8] = test system: SH-SY5Y; test: Effect on cell death pathway in human SH-SY5Y cells assessed as decrease in early apoptotic cells at 50 uM incubated for 24 hrs by Annexin V-FITC/PI staining based microscopy; type: functional
# [9] = test system: SH-SY5Y; test: Antioxidant activity against human SH-SY5Y cells assessed as increase in basal respiration at 10 uM incubated for 24 hrs followed by addition of oligomycin/FCCP/antimycin A /rotenone by Cell Mito stress assay based seahorse XF96 flux analyzer; type: functional
# [10] = test system: SH-SY5Y; test: Induction of mitochondrial membrane polarization in human SH-SY5Y cells at 50 uM incubated for 24 hrs by JC-1 staining based fluorescence assay; type: functional
# [11] = test system: SH-SY5Y; test: Neuroprotective activity against H2O2-induced human SH-SY5Y cells assessed as increase in cell viability at 10 uM preincubated for 30 mins followed by H2O2 addition and measured after 24 hrs by SRB assay; type: functional, cell-based; conditions: time 24.5 hrs
# [12] = test system: SH-SY5Y; test: Effect on cell death pathway in human SH-SY5Y cells assessed as decrease in early apoptotic cells at 10 uM incubated for 24 hrs by Annexin V-FITC/PI staining based microscopy; type: functional
# [13] = test system: SH-SY5Y; test: Cytotoxicity against human SH-SY5Y cells assessed as increase in cell viability at 10 to 100 uM incubated for 24 hrs; type: toxicity, cell-based; conditions: dose 10-100 µM
# [14] = test system: SH-SY5Y; test: Neuroprotective activity against tBHP-induced human SH-SY5Y cells assessed as increase in cell viability at 50 uM preincubated for 30 mins followed by t-BHP addition at 15 uM and measured after 24 hrs by neutral dye uptake assay relative to control; type: functional; conditions: time 24.5 hrs
# [15] = test system: SH-SY5Y; test: Antioxidant activity against human SH-SY5Y cells assessed as effect on intracellular ATP level at 50 uM incubated for 24 hrs followed by addition of oligomycin/FCCP/antimycin A /rotenone by Cell Mito stress assay based seahorse XF96 flux analyzer; type: functional
# [16] = test system: SH-SY5Y; test: Effect on cell death pathway in human SH-SY5Y cells assessed as decrease in late apoptotic cells at 10 uM incubated for 24 hrs by Annexin V-FITC/PI staining based microscopy; type: functional
# [17] = test system: SH-SY5Y; test: Antioxidant activity against human SH-SY5Y cells assessed as increase in basal ECAR at 10 uM incubated for 24 hrs followed by addition of oligomycin/FCCP/antimycin A /rotenone by Cell Mito stress assay based seahorse XF96 flux analyzer; type: functional
# [18] = test system: SH-SY5Y; test: Effect on cell death pathway in human SH-SY5Y cells assessed as decrease in necrotic cells at 10 uM incubated for 24 hrs by Annexin V-FITC/PI staining based microscopy; type: functional
# [19] = Cytotoxicity against human HepG2 cells assessed as cell viability incubated for 24 hrs; type: toxicity, cell-based; conditions: read-out: Activity
# [20] = Cytotoxicity against human SH-SY5Y cells assessed as cell viability incubated for 24 hrs; type: toxicity, cell-based; conditions: read-out: Activity
# [21] = Drug uptake in C57BL/6J mouse liver mitochondria at 5 uM in presence of FCCP by UPLC analysis; type: ADME
# [22] = test system: HepG2; test: Cytotoxicity against human HepG2 cells assessed as increase in cell viability at 10 to 100 uM incubated for 24 hrs; type: toxicity, cell-based; conditions: hepg2, 24 h, dose 10-100 µM
# [23] = test system: SH-SY5Y; test: Cytotoxicity against human SH-SY5Y cells incubated for 48 hrs; type: toxicity, cell-based
# [24] = test system: SH-SY5Y; test: Antioxidant activity against human SH-SY5Y cells assessed as increase in spare respiratory capacity at 10 uM incubated for 24 hrs followed by addition of oligomycin/FCCP/antimycin A /rotenone by Cell Mito stress assay based seahorse XF96 flux analyzer; type: functional
# [25] = test system: SH-SY5Y; test: Antioxidant activity against human SH-SY5Y cells assessed as increase in ATP production-linked respiration at 10 uM incubated for 24 hrs followed by addition of oligomycin/FCCP/antimycin A /rotenone by Cell Mito stress assay based seahorse XF96 flux analyzer; type: functional
# [26] = test system: SH-SY5Y; test: Effect on cell death pathway in human SH-SY5Y cells assessed as decrease in late apoptotic cells at 50 uM incubated for 24 hrs by Annexin V-FITC/PI staining based microscopy; type: functional
# [27] = Dissociation constant, pKa of the compound by UV-vis spectrophotometric analysis; type: physicochemical
# [28] = test system: SH-SY5Y; test: Effect on cell death pathway in human SH-SY5Y cells assessed as decrease in necrotic cells at 50 uM incubated for 24 hrs by Annexin V-FITC/PI staining based microscopy; type: functional
# [29] = test system: SH-SY5Y; test: Antioxidant activity against human SH-SY5Y cells assessed as increase in maximal respiration at 10 uM incubated for 24 hrs followed by addition of oligomycin/FCCP/antimycin A /rotenone by Cell Mito stress assay based seahorse XF96 flux analyzer; type: functional
# [30] = Drug uptake in C57BL/6J mouse liver mitochondria at 5 uM in presence of succinate by UPLC analysis; type: ADME
# [31] = test system: SH-SY5Y; test: Neuroprotective activity against tBHP-induced human SH-SY5Y cells assessed as increase in cell viability at 10 uM preincubated for 30 mins followed by t-BHP addition and measured after 24 hrs by SRB assay; type: functional, cell-based; conditions: time 24.5 hrs
# [32] = test system: SH-SY5Y; test: Neuroprotective activity against tBHP-induced human SH-SY5Y cells assessed as increase in cell viability at 50 uM preincubated for 30 mins followed by t-BHP addition and measured after 24 hrs by SRB assay; type: functional, cell-based; conditions: time 24.5 hrs
smiles,measurement,setting,value
CS(=O)(=O)[O-].O=C(/C=C/c1ccc(O)c(O)c1)NCCCCCCCCCC[n+]1ccc2ccccc2c1,Activity,[1],Active
same,Activity,[2],85.6%
same,Drug uptake,[3],Not Active
same,Activity,[4],86.8%
same,Activity,[5],59.6%
same,Activity,[6],inactive
same,Activity,[7],inactive
same,Activity,[8],Active
same,Activity,[9],Active
same,Activity,[10],81.5%
same,Activity,[11],inactive
same,Activity,[12],Active
same,Activity,[13],Non-Toxic
same,Activity,[14],89.7%
same,Activity,[15],87.9%
same,Activity,[16],Active
same,Activity,[17],Active
same,Activity,[18],Active
same,viability at 24 h,[19],≥ 85%
same,viability at 24 h,[20],≥ 85%
same,Drug uptake,[21],Active
same,Activity,[22],Non-Toxic
same,Activity,[23],Non-Toxic
same,Activity,[24],Active
same,Activity,[25],Active
same,Activity,[26],Active
same,pKa,[27],8.45
same,Activity,[28],Active
same,Activity,[29],Active
same,Drug uptake,[30],~ 25%
same,Activity,[31],Active
same,Activity,[32],Active
